Measured values from patent US9434711B2 (Janssen Pharmaceutica, NV, priority 2007, dated 2016).

Molecular target: canine TRPM8 (Canis lupus familiaris, UniProt Q1A7N1)
Assay: In Vitro Canine TRPM8 Functional Assay (Ca2+ fluorescence, icilin activation)
Format: cell-based
Details: for IC50: HEK293 cells stably expressing canine TRPM8, icilin activation, eight-point dose-response, read-out: IC50; for inhibition at 0.2 µM: read-out: % Inh @ 0.2
Summary of the method: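 Eight-point dose-response curves, each point averaging quadruplicate wells, gave EC50 or IC50. Canine TRPM8-expressing HEK293 cells, dye-loaded (Calcium 3), were pre-exposed 5 min to compound, then challenged with icilin at roughly EC80; intracellular Ca2+ read by FLIPR or FDSS fluorescence.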

[1] = compound at 0.2 μM, canine TRPM8, icilin activation

Chain of canine TRPM8 (Q1A7N1 1-1104): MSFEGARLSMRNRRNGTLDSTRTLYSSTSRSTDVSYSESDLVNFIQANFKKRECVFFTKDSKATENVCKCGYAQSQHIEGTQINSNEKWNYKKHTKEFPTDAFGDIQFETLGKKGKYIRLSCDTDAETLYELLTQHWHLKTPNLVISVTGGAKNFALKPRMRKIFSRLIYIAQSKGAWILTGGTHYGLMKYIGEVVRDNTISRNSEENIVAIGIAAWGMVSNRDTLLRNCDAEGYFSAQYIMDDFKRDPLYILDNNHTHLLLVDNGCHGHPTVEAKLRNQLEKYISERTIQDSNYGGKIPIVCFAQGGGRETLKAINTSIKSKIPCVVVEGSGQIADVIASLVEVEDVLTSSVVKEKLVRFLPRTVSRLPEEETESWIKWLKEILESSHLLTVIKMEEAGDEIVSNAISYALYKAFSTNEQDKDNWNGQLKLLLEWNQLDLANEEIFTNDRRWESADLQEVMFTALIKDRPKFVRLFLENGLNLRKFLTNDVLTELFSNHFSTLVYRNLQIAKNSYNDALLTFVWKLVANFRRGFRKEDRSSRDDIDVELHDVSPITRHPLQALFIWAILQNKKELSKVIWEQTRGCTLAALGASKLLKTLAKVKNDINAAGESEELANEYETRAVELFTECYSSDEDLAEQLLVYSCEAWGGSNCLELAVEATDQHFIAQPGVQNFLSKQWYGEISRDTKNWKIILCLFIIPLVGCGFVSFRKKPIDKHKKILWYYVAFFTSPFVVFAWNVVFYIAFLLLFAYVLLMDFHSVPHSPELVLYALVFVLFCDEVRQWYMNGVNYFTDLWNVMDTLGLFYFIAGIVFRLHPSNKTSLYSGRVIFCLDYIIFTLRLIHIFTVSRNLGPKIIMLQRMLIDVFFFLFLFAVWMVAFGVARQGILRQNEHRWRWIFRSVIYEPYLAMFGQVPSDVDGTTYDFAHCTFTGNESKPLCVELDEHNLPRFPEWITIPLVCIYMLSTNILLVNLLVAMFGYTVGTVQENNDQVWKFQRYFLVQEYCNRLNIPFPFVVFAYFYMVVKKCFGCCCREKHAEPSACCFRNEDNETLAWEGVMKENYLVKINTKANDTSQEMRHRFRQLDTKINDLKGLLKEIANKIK

Row | SMILES | IC50 | inhibition at 0.2 µM [1] | % Inh @ 0.2 (μM) [1]
1 | O=c1[nH]c(-c2ccc(S(=O)(=O)N(CCCCC(F)(F)F)c3sc4ccccc4c3Br)cc2)ns1 [Compound 712, N-(3-Bromo-benzo[b]thiophen-2-yl)-N-(5,5,5-trifluoro-pentyl)-4-(5-oxo-4,5-dihydro-[1,2,4]thiadiazol-3-yl)-benzenesulfonamide] | 4 nM | 102% | –
2 | CS(=O)(=O)Nc1cccc(S(=O)(=O)N(CCC(F)(F)F)c2cc3ccccc3s2)c1 [Compound 713, N-(Benzo[b]thiophen-2-yl)-3-methanesulfonylamino-N-(3,3,3-trifluoro-propyl)-benzenesulfonamide] | – | 47% | –
3 | CS(=O)(=O)Nc1cccc(S(=O)(=O)N(CCC(F)(F)F)c2sc3ccccc3c2Cl)c1 [Compound 714, N-(3-Chloro-benzo[b]thiophen-2-yl)-3-methanesulfonylamino-N-(3,3,3-trifluoro-propyl)-benzenesulfonamide] | 29 nM | 96% | –
4 | CS(=O)(=O)Nc1cccc(S(=O)(=O)N(CCC(F)(F)F)c2sc3ccccc3c2Br)c1 [Compound 715, N-(3-Bromo-benzo[b]thiophen-2-yl)-3-methanesulfonylamino-N-(3,3,3-trifluoro-propyl)-benzenesulfonamide] | 24 nM | 101% | –
5 | CS(=O)(=O)Nc1ccc(S(=O)(=O)N(CCC2CC2)c2sc3ccccc3c2Cl)cc1 [Compound 716, N-(3-Chloro-benzo[b]thiophen-2-yl)-N-(2-cyclopropyl-ethyl)-4-methanesulfonylamino-benzenesulfonamide] | 9 nM | 101% | –
6 | CS(=O)(=O)Nc1ccc(S(=O)(=O)N(CCC2CC2)c2sc3ccccc3c2Br)cc1 [Compound 717, N-(3-Bromo-benzo[b]thiophen-2-yl)-N-(2-cyclopropyl-ethyl)-4-methanesulfonylamino-benzenesulfonamide] | 5 nM | 102% | –
7 | O=S(=O)(Nc1ccc(S(=O)(=O)N(CCC2CC2)c2sc3ccccc3c2Cl)cc1)C1CC1 [Compound 718, N-(3-Chloro-benzo[b]thiophen-2-yl)-4-cyclopropanesulfonylamino-N-(2-cyclopropyl-ethyl)-benzenesulfonamide] | 39 nM | 96% | –
8 | O=S(=O)(Nc1ccc(S(=O)(=O)N(CCC2CC2)c2sc3ccccc3c2Br)cc1)C1CC1 [Compound 719, N-(3-Bromo-benzo[b]thiophen-2-yl)-4-cyclopropanesulfonylamino-N-(2-cyclopropyl-ethyl)-benzenesulfonamide] | 23 nM | 100% | –
9 | Cc1c(N(CCCCC(F)(F)F)S(=O)(=O)c2nc3ccccc3[nH]2)sc2ccccc12 [Compound 720, N-(3-Methyl-benzo[b]thiophen-2-yl)-N-(5,5,5-trifluoro-pentyl)-1H-benzimidazole-2-sulfonamide] | – | 52% | –
10 | Cc1c(N(CCCCC(F)(F)F)S(=O)(=O)c2cccc3nccnc23)sc2ccccc12 [Compound 721, N-(3-Methyl-benzo[b]thiophen-2-yl)-N-(5,5,5-trifluoro-pentyl)-quinoxalin-5-yl-sulfonamide] | 4.2 nM | 102% | –
11 | Cc1c(N(Cc2ccc(F)c(C(F)(F)F)c2)S(=O)(=O)c2nc3ccccc3n2C)sc2ccccc12 [Compound 722, N-(3-Methyl-benzo[b]thiophen-2-yl)-N-(4-fluoro-3-trifluoromethyl-benzyl)-1-methyl-1H-benzimidazole-2-sulfonamide] | – | 28% | –
12 | Cc1c(N(Cc2ccc(F)c(C(F)(F)F)c2)S(=O)(=O)c2cccc3nccnc23)sc2ccccc12 [Compound 723, N-(3-Methyl-benzo[b]thiophen-2-yl)-N-(4-fluoro-3-trifluoromethyl-benzyl)-quinoxalin-5-yl-sulfonamide] | 18 nM | 102% | –
13 | Cc1c(N(Cc2ccc(F)c(C(F)(F)F)c2)S(=O)(=O)CCC=O)sc2ccccc12 [Compound 724, N-(4-Fluoro-3-trifluoromethyl-benzyl)-N-(3-methyl-benzo[b]thiophen-2-yl)-3-oxo-propane-1-sulfonamide] | 5.3 nM | 102% | –
14 | Cc1c(N(Cc2ccc(F)c(C(F)(F)F)c2)S(=O)(=O)CCC(C)(C)O)sc2ccccc12 [Compound 725, N-(4-Fluoro-3-trifluoromethyl-benzyl)-N-(3-methyl-benzo[b]thiophen-2-yl)-3-hydroxy-3-methyl-butane-1-sulfonamide] | 7.8 nM | 102% | –
15 | Cc1c(N(CCC2CC2)S(=O)(=O)c2nc3ccccc3[nH]2)sc2ccccc12 [Compound 726, N-(Cyclopropyl-ethyl)-N-(3-methyl-benzo[b]thiophen-2-yl)-1H-benzimidazole-2-sulfonamide] | 90.3 nM | 69% | –
16 | Cc1c(N(CCCCC(F)(F)F)S(=O)(=O)c2nc3ccccc3[nH]2)sc2ccccc12 [Compound 727, N-(3-Methyl-benzo[b]thiophen-2-yl)-N-(5,5,5,-trifluoro-pentyl)-1H-benzimidazole-2-sulfonamide] | – | – | 16%

Row | SMILES | IC50 | inhibition at 0.2 µM [1] | % Inh @ 0.2 (μM) [1]
17 | Cc1c(N(Cc2ccc(F)c(C(F)(F)F)c2)S(=O)(=O)c2nc3ccccc3[nH]2)sc2ccccc12 [Compound 728, N-(3-Methyl-benzo[b]thiophen-2-yl)-N-(4-fluoro-3-trifluoromethyl-benzyl)-1H-benzimidazole-2-sulfonamide] | – | 44% | –
18 | Cc1c(N(Cc2ccc(OC(F)(F)F)cc2)S(=O)(=O)c2nc3ccccc3[nH]2)sc2ccccc12 [Compound 729, N-(3-Methyl-benzo[b]thiophen-2-yl)-N-(4-trifluoromethoxy-benzyl)-1H-benzimidazole-2-sulfonamide] | – | 75% | –
19 | CC(=O)c1c(N(Cc2ccc(F)cc2)S(=O)(=O)c2ccc(Br)cc2)sc2ccccc12 [Compound 730, N-(3-Acetyl-benzo[b]thiophen-2-yl)-4-bromo-N-(4-fluoro-benzyl)benzene-sulfonamide] | 23.6 nM | 100% | –
20 | CC(=O)c1c(N(Cc2ccc(OC(F)(F)F)cc2)S(=O)(=O)c2ccc(Br)cc2)sc2ccccc12 [Compound 731, N-(3-Acetyl-benzo[b]thiophen-2-yl)-4-bromo-N-(4-(trifluoromethoxy)-benzyl)benzenesulfonamide] | 44.4 nM | 87% | –
21 | CC(=O)c1c(N(Cc2ccccc2)S(=O)(=O)c2ccc(Br)cc2)sc2ccccc12 [Compound 732, N-(3-Acetyl-benzo[b]thiophen-2-yl)-N-(benzyl)-4-bromobenzenesulfonamide] | 13.3 nM | 100% | –
22 | CC(=O)c1c(N(Cc2ccc(F)c(Cl)c2)S(=O)(=O)c2ccc(Br)cc2)sc2ccccc12 [Compound 733, N-(3-Acetyl-benzo[b]thiophen-2-yl)-4-bromo-N-(3-chloro-4-fluoro-benzyl)benzenesulfonamide] | 13.4 nM | 100% | –
23 | CC(C)(O)c1c(N(Cc2ccc(F)cc2)S(=O)(=O)c2ccc(Br)cc2)sc2ccccc12 [Compound 734, N-(4-Fluorobenzyl)-N-(3-(1-hydroxy-1-methyl-ethyl)-benzo[b]thiophen-2-yl)-4-bromo-benzenesulfonamide] | 9.7 nM | 102% | –
24 | CC(C)(O)c1c(N(Cc2ccc(OC(F)(F)F)cc2)S(=O)(=O)c2ccc(Br)cc2)sc2ccccc12 [Compound 735, N-(3-(1-Hydroxy-1-methyl-ethyl)-benzo[b]thiophen-2-yl)-N-(4-trifluoromethoxybenzyl)-4-bromo-benzenesulfonamide] | 26.8 nM | 101% | –
25 | CC(C)(O)c1c(N(Cc2ccccc2)S(=O)(=O)c2ccc(Br)cc2)sc2ccccc12 [Compound 736, N-(Benzyl)-N-(3-(1-hydroxy-1-methyl-ethyl)-benzo[b]thiophen-2-yl)-4-bromo-benzenesulfonamide] | 17.2 nM | 101% | –
26 | CC(C)(O)c1c(N(Cc2ccc(F)c(Cl)c2)S(=O)(=O)c2ccc(Br)cc2)sc2ccccc12 [Compound 737, N-(3-Chloro-4-fluorobenzyl)-N-(3-(1-hydroxy-1-methyl-ethyl)-benzo[b]thiophen-2-yl)-4-bromo-benzenesulfonamide] | 29.9 nM | 101% | –
27 | Cc1c(N(CCC2CC2)S(=O)(=O)c2ccc(N(C)C)cc2)sc2ccccc12 [Compound 738, N-(3-Methyl-benzo[b]thiophen-2-yl)-N-(cyclopropyl-ethyl)-4-dimethylamino-benzenesulfonamide] | 8.9 nM | 102% | –
28 | CCN(CC)c1ccc(S(=O)(=O)N(CCC2CC2)c2sc3ccccc3c2C)cc1 [Compound 739, N-(3-Methyl-benzo[b]thiophen-2-yl)-N-(cyclopropyl-ethyl)-4-diethylamino-benzenesulfonamide] | 23.2 nM | 90% | –
29 | Cc1c(N(CCC2CC2)S(=O)(=O)c2ccc(N3CCSCC3)cc2)sc2ccccc12 [Compound 740, N-(3-Methyl-benzo[b]thiophen-2-yl)-N-(cyclopropyl-ethyl)-4-thiomorpholin-4-yl-benzenesulfonamide] | – | 57% | –
30 | Cc1c(N(CCC2CC2)S(=O)(=O)c2ccc(N3CCOCC3)cc2)sc2ccccc12 [Compound 741, N-(3-Methyl-benzo[b]thiophen-2-yl)-N-(cyclopropyl-ethyl)-4-morpholino-benzenesulfonamide] | 17.3 nM | 101% | –
31 | Cc1c(N(CCC2CC2)S(=O)(=O)c2ccc(N3CCNCC3)cc2)sc2ccccc12 [Compound 742, N-(3-Methyl-benzo[b]thiophen-2-yl)-N-(cyclopropyl-ethyl)-4-(piperazin-1-yl)-benzenesulfonamide] | – | 66% | –
32 | COc1cc(NS(C)(=O)=O)ccc1S(=O)(=O)N(Cc1ccc(F)c(C(F)(F)F)c1)c1cc2ccccc2s1 [Compound 743, N-(Benzo[b]thiophen-2-yl)-N-(4-fluoro-3-trifluoromethyl-benzyl)-4-methanesulfonylamino-2-methoxy-benzenesulfonamide] | – | 32% | –
